Assay in all cases: NCI tumour cell line growth inhibition, 48 h
Test [1] concerns HS 578T breast.
Test [2] has as its system DU-145 prostate.
Test [3] concerns MDA-N.
Test [4] concerns DLD-1 colon.
Test [5] has as its system MDA-MB-231 breast.
The test system of test [6] is SNB-78 CNS.

“And” between values parts separate entries of the source, which are not always exact repeats. Equal values may be shown once.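 Values below derive from 48-hour exposures of cells grown in 96-well plates, with endpoints linearly interpolated between the two concentrations bracketing the appropriate inhibition level. GI50 is the concentration that inhibits growth by half. TGI: total growth inhibition.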

Consider `COc1cc(/C=C\c2ccc(C)cc2)cc(OC)c1OC`, for which the GI50 in test [1] was 0.0358 µM. For the same compound, the TGI is 0.0843 µM in test [2], 0.00521 µM in test [3] and over 100 µM in test [4].
For `O=C1C=C(NCCNC(=S)Nc2ccccc2)c2nccc3c2c1nc1ccccc13`, the GI50 in test [1] is over 100 µM; in test [5], 94.5 µM; in test [2] it was 39.8 µM. Moreover, the TGI in test [1], in test [5] and in test [2] was over 100 µM each time.
On to `CO/C(=N\N=C\c1cccc(Cl)c1)c1ccncc1`, for which the TGI in test [5], in test [2] and in test [3] was over 10 µM in each case.
On to `Cc1ccc(S(=O)(=O)NCCNC2=CC(=O)c3nc4ccccc4c4ccnc2c34)cc1`, for which the GI50 is 27 µM in test [1], 24 µM in test [5] and 19.1 µM in test [2]. In addition, the values for the TGI in test [1], in test [5] and in test [2] were 79.9 µM, 66.1 µM and 51.5 µM, respectively.
Regarding `COc1ccc(N2Cc3cnc(Nc4ccccc4)nc3N([C@@H]3CC[C@@H](O)C3)C2=O)cc1`, the GI50 in test [1] was 0.671 µM; in test [5] it was 5.18 µM; in test [2], 5.59 µM. In addition, the values for the TGI in test [1], in test [5] and in test [2] were 6.2 µM, over 22.3 µM and over 25 µM, respectively.
`Cc1c(S(C)(=O)=O)c(-c2cc(F)cc(N3CCN(c4ccc(NS(=O)(=O)c5ccc(N[C@H](CCN6CCC(C(=O)OCCCP(=O)(O)O)CC6)CSc6ccccc6)c(S(=O)(=O)C(F)(F)F)c5)cc4)CC3)c2)c(-c2ccc(Cl)cc2)n1C(C)C`: the results for the GI50 in test [1], in test [5] and in test [2] were over 100 µM, 3.13 µM and over 100 µM, respectively. For the same compound, the TGI in test [1] is over 100 µM; in test [5], 28 µM; in test [2] it was over 100 µM.
In test [6], `COC(=O)C(C(=O)C(=O)Nc1ccc(C(F)(F)F)cc1[N+](=O)[O-])c1csc(-n2nc(-c3ccccc3)cc2-c2ccccc2)n1` (stereo not drawn) showed a TGI of over 100 µM.
Consider `COc1cc(CCN)c2c(c1OC)SSSSS2`, for which the GI50 was 2.11 µM in test [1], 1.49 µM in test [5], 0.276 µM in test [2] and 0.706 µM in test [3]. The TGI was 5.17 µM in test [1], 2.92 µM in test [5], 1.22 µM in test [2] and 2.21 µM in test [3].
On to `CCCCS(=O)CCC(N)C(=O)O` (stereo not drawn), for which the TGI in test [1], in test [5], in test [2] and in test [3] was over 100 µM throughout.
Turning to `Cc1ccc(/C(=N\N=C(N)N)c2ccccc2)cc1`, the GI50 in test [1] was 0.349 µM; in test [5], 0.394 µM; in test [2], 0.41 µM. Also, the TGI in test [1] amounted to 3.67 µM; in test [5] it was 3.93 µM; in test [2] it was 10.4 µM.
Consider `CCOC(=O)/C(O)=C/c1cc(OC)cc(=O)o1`, for which the TGI in test [4] and in test [6] was over 100 µM throughout.
As for `CCCCCCCNc1nc(C(=O)OCC)ncc1-c1ccc(C(F)(F)F)cc1`, the GI50 is 46.6 µM in test [1], 33.3 µM in test [5] and 46.1 µM in test [2]. Also, the TGI in test [1], in test [5] and in test [2] was over 100 µM throughout.
As to `O=C1C=CC=CC2CC=C[C@@H](O)C12` (stereo partly drawn), the TGI in test [4] and in test [6] was over 100 µM in each case.
`CSC(CC(=O)O)C(=O)O` (stereo not drawn): the TGI in test [1], in test [5], in test [2] and in test [3] was over 100 µM in each case.
For the compound `CCCCc1c2c(nc3c1CCc1cc4cc5c(nc4nc1-3)-c1nc3c(c(CCCC)c1CC5)CCCC3)CCCC2`, the TGI in test [4] and in test [6] was over 100 µM in each case.
As for `O=C1C(c2c[nH]c3ccccc23)=C(c2c[nH]c3ccccc23)C(=O)N1O`, the GI50 is over 19.7 µM in test [1], over 19.4 µM in test [5] and over 25 µM in test [2]. The TGI in test [1], in test [5] and in test [2] was over 25 µM each time.
Take `COc1ccc(-c2oc3c(OC)c(OC)c(OC)c(O)c3c(=O)c2OC)cc1OC`: the TGI in test [1] is 17.3 µM; in test [5] it was over 100 µM; in test [2] it was over 100 µM; in test [3], 30 µM.
In the case of `CCc1n(Cc2ccc3ccccc3n2)cc[n+]1Cc1ccc2ccccc2n1`, the GI50 in test [1] is 1.88 µM; in test [5], 0.441 µM; in test [2] it was 1.93 µM. Besides, the TGI was 26.1 µM in test [1], 4.16 µM in test [5] and 51.7 µM in test [2].
Turning to `COc1cc(/C=C2\CCC/C(=C\c3cc(OC)c(O)c(OC)c3)C2=O)cc(OC)c1O`, the TGI in test [1] is over 100 µM; in test [5], 10.8 µM; in test [2], 6.01 µM; in test [3], 75 µM and > 100 µM. In addition, the GI50 in test [3] is 2.52 µM.
On to `O=[N+]([O-])c1ccc(S(=O)Cc2ccccc2)c([N+](=O)[O-])c1` (stereo not drawn), for which the GI50 in test [1] is 21.4 µM; in test [5] it was 2.82 µM; in test [2], 11 µM. In addition, the TGI is over 100 µM in test [1], 8.92 µM in test [5] and 23 µM in test [2].
As to `C1C[OH+]CC[OH+]CCNCC[OH+]CC[OH+]CCN1.[Cl-].[Pt+4]`, in test [4], the GI50 is over 100 µM and the TGI was over 100 µM.
The compound `NCCCOCC(=O)O` registered a TGI in test [6] of over 100 µM.
Regarding `C=C1SC(=Nc2c(C)cc(C)cc2C)N(C(=O)c2sc3ccccc3c2Cl)C12CCCCC2`, the GI50 in test [1], in test [5] and in test [2] was over 100 µM each time. Also, the TGI in test [1], in test [5] and in test [2] was over 100 µM in each case.
For `COc1ccc(C2SCC(=O)N2NC(=O)C(O)c2ccccc2)cc1OC` (stereo not drawn), the GI50 in test [1], in test [5] and in test [2] was over 100 µM each time. Also, the TGI in test [1], in test [5] and in test [2] was over 100 µM in each case.

Values taken from PubChem BioAssay (NCI).
